Measured values: patent US5556853A, “Epoxysuccinic acid derivatives” (Takeda Chemical Industries, Ltd., priority 1993, dated 1996)
Structures can show the parent of a compound that is named as a salt.

Legend:
[1] = system: bone resorption as enhanced by PTH (parathyroid hormone) in femurs from female BALB/c mice; assay: Determination of Bone Resorption Suppressive Activity (PTH-enhanced, calcium release from cultured femurs); format: cell-based; conditions: 168 h; test compound 10 μg/ml, PTH 1 μM, 7 days, mouse femurs
Method: Compounds (I), (XI) and (XXI) or salts thereof excellently suppress bone resorption. Their suppressive action against bone resorption as enhanced by PTH (parathyroid hormone) was determined by the method described below.
Femurs were aseptically isolated from female BALB/c mice at 8-10 weeks of age. After the bone marrow cavity was washed with a Ham F12 medium containing 10% (w/w) thermally inactivated fetal calf serum, 100 unit/ml penicillin G and 100 unit/ml streptomycin (hereinafter referred to as culture broth), each femur was added to 1 ml of the culture broth and precultured for 3 hours at 37° C. in the presence of 5% carbon dioxide and 95% air. Each bone was transferred to 1 ml of the culture broth supplemented with PTH (produced by Peptide Institute, Inc., final concentration 1 μM) and the test compound (final concentration 10 μg/ml) and cultured for 7 more days, after which the total calcium content in the culture broth was determined using Calcium E-Test Wako (produced by Wako Pure Chemical Industries). The bone resorption suppressive activity of the test compound was calculated using the following equation:
Bone resorption suppressive activity (%)=100×(Cp-Cs)/(Cp-Cc)
Cc: Total calcium content in the culture broth containing neither PTH nor test compound
Cp: Total calcium content in the culture broth containing PTH […]

mice = assay: Toxicity Study; format: in vivo; conditions: intraperitoneally or orally administered at 400 mg/kg
Method: TAN-1756A caused no death in mice when it was intraperitoneally or orally administered at 400 mg/kg.
TAN-1803 monohydrochloride caused no death in mice when it was intraperitoneally or orally administered at 400 mg/kg.

[2] = target: T1, human recombinant cathepsin L (Homo sapiens, UniProt P07711); assay: Determination of Cathepsin L Inhibitory Activity; format: biochemical; conditions: Z-Phe-Arg-7MCA substrate, pH 5.5, 37° C., 20 minutes, read-out: Inhibitory activity potency IC50 Cathepsin L (converted)
T1 construct: made in house; host or cells: mouse myeloma Sp2/0 cells transformed with pTBN-HCLneo (Sp-HCL26), secreted into the culture supernatant
Method: To 75 μl of a reaction mixture containing 1 ng of human recombinant cathepsin L (as produced in Reference Examples 1 through 7 below), 2 μM dithiothreitol (hereinafter referred to as DTT), 1 mM ethylenediaminetetraacetate disodium salt, 0.1M sodium acetate buffer (pH 5.5) and various concentrations of sample, 25 μl of 20 μM benzyloxycarbonyl-L-phenylalanyl-L-arginine-4-methylcoumaryl-7-amide (hereinafter referred to as Z-Phe-Arg-7MCA, produced by Peptide Institute, Inc.) was added to initiate the reaction. After incubation at 37° C. for 20 minutes, 100 μl of a reaction stopper solution containing 100 mM sodium monochloroacetate was added. The amount of liberated 4-methyl-7-aminocoumarin was determined at an excitation wavelength of 365 nm and a fluorescence wavelength of 450 nm, using a fluorophotometer (FCA; produced by Baxter). The sample concentration required to cause 50% inhibition was expressed as the IC50 value, with the fluorescence value obtained from the same reaction in the absence of the sample taken as 100%.

cathepsin B = target: T2, cathepsin B (Homo sapiens, UniProt P07858); assay: Determination of Cathepsin B Inhibitory Activity; format: biochemical; conditions: cathepsin B (Sigma), Z-Phe-Arg-7MCA substrate, pH 5.5, 37° C., 20 minutes; read-out: Inhibitory activity potency IC50 Cathepsin B (converted)
T2 construct: purchased Sigma
Method: To 75 μl of a reaction mixture containing 30 ng of cathepsin B (produced by Sigma), 2 μM DTT, 1 mM ethylenediaminetetraacetate disodium salt, 0.1M sodium acetate buffer (pH 5.5) and various concentrations of sample, 25 μl of 20 μM Z-Phe-Arg-7MCA was added to initiate the reaction. After reaction mixture incubation at 37° C. for 20 minutes, 100 μl of a reaction stopper solution containing 100 mM sodium monochloroacetate was added. The amount of liberated 4-methyl-7-aminocoumarin was determined at an excitation wavelength of 365 nm and a fluorescence wavelength of 450 nm, using a fluorophotometer. The sample concentration required to cause 50% inhibition was expressed as the IC50 value, with the fluorescence value obtained from the same reaction in the absence of the sample taken as 100%.

T1 sequence (P07711 114-333): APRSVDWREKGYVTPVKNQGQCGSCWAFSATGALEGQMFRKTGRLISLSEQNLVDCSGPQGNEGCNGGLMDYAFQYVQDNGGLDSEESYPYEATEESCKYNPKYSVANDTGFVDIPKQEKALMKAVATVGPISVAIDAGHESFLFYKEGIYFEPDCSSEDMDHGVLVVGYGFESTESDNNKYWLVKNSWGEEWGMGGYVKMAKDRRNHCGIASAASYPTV

In the case of `NCCCCNC(=O)[C@H](Cc1ccccc1)NC(=O)[C@H]1O[C@@H]1C(=O)O` [Compound 1, N-{N-[(2S,3S)-3-trans-carboxyoxirane-2-carbonyl]-L-phenylalanyl}-1,4-diaminobutane], the activity at 10 µg/mL [1] is reported as 150% and the death in mice (mice) is reported as “no death”.
In the case of `NCCCCCCCCNC(=O)[C@H](Cc1ccccc1)NC(=O)[C@H]1O[C@@H]1C(=O)O` [Compound 23, N-(N-[(2S,3S)-3-trans-carboxyoxirane-2-carbonyl]-L-phenylalanyl}-1,8-diaminooctane], the IC50 [2] is reported as 0.00493 µM and the IC50 (cathepsin B) is reported as 0.0592 µM.
With `O=C(NCCCCNC(=O)[C@H](Cc1ccccc1F)NC(=O)[C@H]1O[C@@H]1C(=O)O)OCc1ccccc1` [Compound 37] the IC50 [2] was 0.00199 µM and the IC50 (cathepsin B) was 0.0279 µM.
For `O=C(O)[C@H]1O[C@@H]1C(=O)N[C@@H](Cc1ccc2ccccc2c1)C(=O)N1CCOCC1` [Compound 82, N-{N-[(2S,3S)-3-trans-carboxyoxirane-2-carbonyl]-3-(2-naphthyl)-L-alanyl}morpholine monosodium salt], the IC50 [2] was 0.00502 µM and the IC50 (cathepsin B) was 0.0853 µM.
In the case of `CC(C)C[C@H](NC(=O)[C@H]1O[C@@H]1C(=O)O)C(=O)N(CCCN)CCCCN` [Compound 92, N-{N-[(2S,3S)-3-trans-carboxyoxirane-2-carbonyl]-L-leucyl}-N-(3-aminopropyl)-1,4-diaminobutane], the activity at 10 µg/mL [1] is reported as 149% and the death in mice (mice) is reported as “no death”.
